≈ marks a conversion by molar mass, not a printed value. Like-named read-outs stand apart in the source and are kept apart here.
How the values were obtained:
[1] = system: C. albicans isolates; assay: Broth microdilution susceptibility (CLSI M27-A3) at different medium pH; assay type: cell-based, Candida albicans; details: for MIC range / MIC50 / MIC90: 10 vaginal isolates; for MIC90: read-out: MIC90; for MIC: read-out: MIC (50% inhibition)
Description: (§1) Ten strains each of C. glabrata and C. albicans vaginal isolates were tested. The strains were obtained from recent clinical trial patients with vulvovaginal candidiasis (VVC) prior to treatment. Candida strains were obtained from the Mycology Reference Library (MRL) at Case Western Reserve University School of Medicine, Ohio, United States.
(§2) Susceptibility testing was performed using a broth microdilution method, according to CLSI M27-A3 guidelines (CLSI. 2008. Reference Method for Broth Dilution Antifungal Susceptibility Testing of Yeasts; Approved Standard—Third Edition. Clinical and Laboratory Standards Institute, CLSI document M27-A3). Antifungals and concentrations tested were SCY-078 and micafungin (both at concentrations within the range of 0.015 to 8 μg/ml) and fluconazole (at concentrations within the range of 0.125 to 64 μg/ml). A 0.1-ml C. albicans and C. glabrata inoculum of 0.5-2.5×10^3 blastospores/ml in RPMI 1640 medium was added to each microdilution well. ATCC strains of Candida parapsilosis and Candida krusei QC isolates were also included concurrently to ensure quality control. Antifungal susceptibility testing was carried out for each isolate in RPMI 1640 at pH 7 (to mimic RPMI medium used in testing the susceptibility of yeast by the CLSI M-27A3 document), pH 5.7, and pH 4.5 (to mimic the pH of the vaginal cavity) by adjusting the pH of the media using NaOH or HCl. […] Agents Chemother., 43: 1383-1386 (1999).
(§3) […] SCY-078 powder was manufactured by Avista, Laboratories, NC. Micafungin and fluconazole were sourced from LGM Pharma.

[2] = system: C. glabrata isolates; assay: as above; assay type: cell-based, Candida glabrata; details: for MIC range: 50% inhibition; for MIC range / MIC50 / MIC90: 10 vaginal isolates; for MIC50 / MIC90 / MIC: Nakaseomyces glabratus, 24 h; for MIC50: read-out: MIC50; for MIC90: read-out: MIC90; for MIC: read-out: MIC (50% inhibition)
Description: as §1, §2, §3

[3] = pH 4.5, 50% inhibition, pH 4.5, 24 h
[4] = pH 5.72, 50% inhibition, pH 5.72, 24 h
[5] = pH 7, 50% inhibition, pH 7.0, 24 h

OC(Cn1cncn1)(Cn1cncn1)c1ccc(F)cc1F [Fluconazole, reference compound]
MIC range ([1]; 50% inhibition, pH 4.5, 24 h): 0.25 to 8 µg/mL | MIC50 ([1]; 50% inhibition, pH 5.72, 24 h): < 0.125 µg/mL | MIC range ([1]; 50% inhibition, pH 5.72, 24 h): <0.125 to 1 µg/mL | MIC range ([1]; 50% inhibition, pH 7.0, 24 h): <0.125 to 1 µg/mL | MIC50 ([1]; Candida albicans, 24 h, pH 4.5, 50% inhibition, pH 4.5, 24 h, read-out: MIC50): 0.25 µg/mL (≈ 0.816 µM) | MIC90 ([1]; Candida albicans, 24 h, pH 4.5, 50% inhibition, pH 4.5, 24 h): 1 µg/mL (≈ 3.27 µM) | MIC ([1]; Candida albicans, 24 h, pH 4.5, C. albicans MRL 34366, pH 4.5, 24 hours): 0.25 µg/mL (≈ 0.816 µM) | MIC ([1]; Candida albicans, 24 h, pH 4.5, C. albicans MRL 34367, pH 4.5, 24 hours): 1 µg/mL (≈ 3.27 µM) | MIC ([1]; Candida albicans, 24 h, pH 4.5, C. albicans MRL 34372, pH 4.5, 24 hours): 0.25 µg/mL (≈ 0.816 µM) | MIC ([1]; Candida albicans, 24 h, pH 4.5, C. albicans MRL 34373, pH 4.5, 24 hours): 0.5 µg/mL (≈ 1.63 µM) | MIC ([1]; Candida albicans, 24 h, pH 4.5, C. albicans MRL 34374, pH 4.5, 24 hours): 0.25 µg/mL (≈ 0.816 µM) | MIC ([1]; Candida albicans, 24 h, pH 4.5, C. albicans MRL 34385, pH 4.5, 24 hours): 0.25 µg/mL (≈ 0.816 µM) | MIC ([1]; Candida albicans, 24 h, pH 4.5, C. albicans MRL 34389, pH 4.5, 24 hours): 0.5 µg/mL (≈ 1.63 µM) | MIC ([1]; Candida albicans, 24 h, pH 4.5, C. albicans MRL 34399, pH 4.5, 24 hours): 8 µg/mL (≈ 26.1 µM) | MIC ([1]; Candida albicans, 24 h, pH 4.5, C. albicans MRL 34408, pH 4.5, 24 hours): 0.25 µg/mL (≈ 0.816 µM) | MIC ([1]; Candida albicans, 24 h, pH 4.5, C. albicans MRL 34449, pH 4.5, 24 hours): 0.5 µg/mL (≈ 1.63 µM) | MIC50 ([1]; Candida albicans, 24 h, pH 5.72, 50% inhibition, pH 5.72, 24 h, read-out: MIC50): < 0.125 µg/mL | MIC90 ([1]; Candida albicans, 24 h, pH 5.72, 50% inhibition, pH 5.72, 24 h): 0.25 µg/mL (≈ 0.816 µM) | MIC ([1]; Candida albicans, 24 h, pH 5.72, C. albicans MRL 34366, pH 5.72, 24 hours): < 0.125 µg/mL | MIC ([1]; Candida albicans, 24 h, pH 5.72, C. albicans MRL 34367, pH 5.72, 24 hours): 0.25 µg/mL (≈ 0.816 µM) | MIC ([1]; Candida albicans, 24 h, pH 5.72, C. albicans MRL 34372, pH 5.72, 24 hours): < 0.125 µg/mL | MIC ([1]; Candida albicans, 24 h, pH 5.72, C. albicans MRL 34373, pH 5.72, 24 hours): < 0.125 µg/mL | MIC ([1]; Candida albicans, 24 h, pH 5.72, C. albicans MRL 34374, pH 5.72, 24 hours): < 0.125 µg/mL | MIC ([1]; Candida albicans, 24 h, pH 5.72, C. albicans MRL 34385, pH 5.72, 24 hours): < 0.125 µg/mL | MIC ([1]; Candida albicans, 24 h, pH 5.72, C. albicans MRL 34389, pH 5.72, 24 hours): < 0.125 µg/mL | MIC ([1]; Candida albicans, 24 h, pH 5.72, C. albicans MRL 34399, pH 5.72, 24 hours): 1 µg/mL (≈ 3.27 µM) | MIC ([1]; Candida albicans, 24 h, pH 5.72, C. albicans MRL 34408, pH 5.72, 24 hours): 0.25 µg/mL (≈ 0.816 µM) | MIC ([1]; Candida albicans, 24 h, pH 5.72, C. albicans MRL 34449, pH 5.72, 24 hours): < 0.125 µg/mL | MIC50 ([1]; Candida albicans, 24 h, pH 7, 50% inhibition, pH 7.0, 24 h, read-out: MIC50): 0.25 µg/mL (≈ 0.816 µM) | MIC90 ([1]; Candida albicans, 24 h, pH 7, 50% inhibition, pH 7.0, 24 h): 0.25 µg/mL (≈ 0.816 µM) | MIC ([1]; Candida albicans, 24 h, pH 7, C. albicans MRL 34366, pH 7.0, 24 hours): < 0.125 µg/mL | MIC ([1]; Candida albicans, 24 h, pH 7, C. albicans MRL 34367, pH 7.0, 24 hours): 0.25 µg/mL (≈ 0.816 µM) | MIC ([1]; Candida albicans, 24 h, pH 7, C. albicans MRL 34372, pH 7.0, 24 hours): < 0.125 µg/mL | MIC ([1]; Candida albicans, 24 h, pH 7, C. albicans MRL 34373, pH 7.0, 24 hours): 0.25 µg/mL (≈ 0.816 µM) | MIC ([1]; Candida albicans, 24 h, pH 7, C. albicans MRL 34374, pH 7.0, 24 hours): 0.25 µg/mL (≈ 0.816 µM) | MIC ([1]; Candida albicans, 24 h, pH 7, C. albicans MRL 34385, pH 7.0, 24 hours): < 0.125 µg/mL | MIC ([1]; Candida albicans, 24 h, pH 7, C. albicans MRL 34389, pH 7.0, 24 hours): < 0.125 µg/mL | MIC ([1]; Candida albicans, 24 h, pH 7, C. albicans MRL 34399, pH 7.0, 24 hours): 1 µg/mL (≈ 3.27 µM) | MIC ([1]; Candida albicans, 24 h, pH 7, C. albicans MRL 34408, pH 7.0, 24 hours): 0.25 µg/mL (≈ 0.816 µM) | MIC ([1]; Candida albicans, 24 h, pH 7, C. albicans MRL 34449, pH 7.0, 24 hours): 0.25 µg/mL (≈ 0.816 µM) | MIC range ([2]; pH 4.5, 24 h): 1 to 16 µg/mL | MIC range ([2]; pH 5.72, 24 h): 2 to 16 µg/mL | MIC range ([2]; pH 7.0, 24 h): 0.5 to 2 µg/mL | increase in MIC50, pH 7 compared to pH 4.5 ([2]; C. glabrata isolates): 8 fold | MIC50 [2, 3]: 8 µg/mL (≈ 26.1 µM) | MIC90 [2, 3]: 16 µg/mL (≈ 52.2 µM) | MIC ([2]; pH 4.5, C. glabrata MRL 32075, pH 4.5, 24 hours): 8 µg/mL (≈ 26.1 µM) | MIC ([2]; pH 4.5, C. glabrata MRL 32232, pH 4.5, 24 hours): 8 µg/mL (≈ 26.1 µM) | MIC ([2]; pH 4.5, C. glabrata MRL 32626, pH 4.5, 24 hours): 8 µg/mL (≈ 26.1 µM) | MIC ([2]; pH 4.5, C. glabrata MRL 32993, pH 4.5, 24 hours): 16 µg/mL (≈ 52.2 µM) | MIC ([2]; pH 4.5, C. glabrata MRL 33204, pH 4.5, 24 hours): 8 µg/mL (≈ 26.1 µM) | MIC ([2]; pH 4.5, C. glabrata MRL 33960, pH 4.5, 24 hours): 16 µg/mL (≈ 52.2 µM) | MIC ([2]; pH 4.5, C. glabrata MRL 33961, pH 4.5, 24 hours): 1 µg/mL (≈ 3.27 µM) | MIC ([2]; pH 4.5, C. glabrata MRL 34339, pH 4.5, 24 hours): 8 µg/mL (≈ 26.1 µM) | MIC ([2]; pH 4.5, C. glabrata MRL 34407, pH 4.5, 24 hours): 8 µg/mL (≈ 26.1 µM) | MIC ([2]; pH 4.5, C. glabrata MRL 34576, pH 4.5, 24 hours): 16 µg/mL (≈ 52.2 µM) | MIC50 [2, 4]: 8 µg/mL (≈ 26.1 µM) | MIC90 [2, 4]: 16 µg/mL (≈ 52.2 µM) | MIC ([2]; pH 5.72, C. glabrata MRL 32075, pH 5.72, 24 hours): 8 µg/mL (≈ 26.1 µM) | MIC ([2]; pH 5.72, C. glabrata MRL 32232, pH 5.72, 24 hours): 8 µg/mL (≈ 26.1 µM) | MIC ([2]; pH 5.72, C. glabrata MRL 32626, pH 5.72, 24 hours): 8 µg/mL (≈ 26.1 µM) | MIC ([2]; pH 5.72, C. glabrata MRL 32993, pH 5.72, 24 hours): 16 µg/mL (≈ 52.2 µM) | MIC ([2]; pH 5.72, C. glabrata MRL 33204, pH 5.72, 24 hours): 8 µg/mL (≈ 26.1 µM) | MIC ([2]; pH 5.72, C. glabrata MRL 33960, pH 5.72, 24 hours): 16 µg/mL (≈ 52.2 µM) | MIC ([2]; pH 5.72, C. glabrata MRL 33961, pH 5.72, 24 hours): 2 µg/mL (≈ 6.53 µM) | MIC ([2]; pH 5.72, C. glabrata MRL 34339, pH 5.72, 24 hours): 2 µg/mL (≈ 6.53 µM) | MIC ([2]; pH 5.72, C. glabrata MRL 34407, pH 5.72, 24 hours): 8 µg/mL (≈ 26.1 µM) | MIC ([2]; pH 5.72, C. glabrata MRL 34576, pH 5.72, 24 hours): 8 µg/mL (≈ 26.1 µM) | MIC50 [2, 5]: 1 µg/mL (≈ 3.27 µM) | MIC90 [2, 5]: 2 µg/mL (≈ 6.53 µM) | MIC ([2]; pH 7, C. glabrata MRL 32075, pH 7.0, 24 hours): 2 µg/mL (≈ 6.53 µM) | MIC ([2]; pH 7, C. glabrata MRL 32232, pH 7.0, 24 hours): 2 µg/mL (≈ 6.53 µM) | MIC ([2]; pH 7, C. glabrata MRL 32626, pH 7.0, 24 hours): 1 µg/mL (≈ 3.27 µM) | MIC ([2]; pH 7, C. glabrata MRL 32993, pH 7.0, 24 hours): 2 µg/mL (≈ 6.53 µM) | MIC ([2]; pH 7, C. glabrata MRL 33204, pH 7.0, 24 hours): 2 µg/mL (≈ 6.53 µM) | MIC ([2]; pH 7, C. glabrata MRL 33960, pH 7.0, 24 hours): 1 µg/mL (≈ 3.27 µM) | MIC ([2]; pH 7, C. glabrata MRL 33961, pH 7.0, 24 hours): 1 µg/mL (≈ 3.27 µM) | MIC ([2]; pH 7, C. glabrata MRL 34339, pH 7.0, 24 hours): 0.5 µg/mL (≈ 1.63 µM) | MIC ([2]; pH 7, C. glabrata MRL 34407, pH 7.0, 24 hours): 1 µg/mL (≈ 3.27 µM) | MIC ([2]; pH 7, C. glabrata MRL 34576, pH 7.0, 24 hours): 1 µg/mL (≈ 3.27 µM)

— patent US20260000656A1, “ANTIFUNGAL AGENTS WITH ENHANCED ACTIVITY IN ACIDIC PH” (Scynexis, Inc., priority 2017, published 2026)
